Data taken from ChEMBL document CHEMBL4765282, “Design, synthesis and biological evaluation of 1H-pyrazolo [3,4-d]pyrimidine derivatives as PAK1 inhibitors that trigger apoptosis, ER stress and anti-migration effect in MDA-MB-231 cells” (Eur J Med Chem, 2020).
Active and inactive are the calls of the source. No cut-off for these calls is given here.

How the values were obtained:
[1] = tested on: MDA-MB-231; test: Induction of apoptosis in human MDA-MB-231 cells assessed as increase in DNA fragmentation at 10 to 40 uM measured after 24 hrs by Hoechst 33258 staining based assay; type: functional, cell-based; conditions: dose 10-40 µM
[2] = Effect on KLF15 gene expression in human MDA-MB-231 cells by Trizol reagent based RNA sequencing analysis relative to control; type: functional
[3] = biological target: Serine/threonine-protein kinase PAK 1 (Homo sapiens, UniProt Q13153); test: Inhibition of PAK1 (unknown origin) […] measured after 40 mins by ADP-glo kinase assay
Sequence of Serine/threonine-protein kinase PAK 1 (Q13153 whole entry): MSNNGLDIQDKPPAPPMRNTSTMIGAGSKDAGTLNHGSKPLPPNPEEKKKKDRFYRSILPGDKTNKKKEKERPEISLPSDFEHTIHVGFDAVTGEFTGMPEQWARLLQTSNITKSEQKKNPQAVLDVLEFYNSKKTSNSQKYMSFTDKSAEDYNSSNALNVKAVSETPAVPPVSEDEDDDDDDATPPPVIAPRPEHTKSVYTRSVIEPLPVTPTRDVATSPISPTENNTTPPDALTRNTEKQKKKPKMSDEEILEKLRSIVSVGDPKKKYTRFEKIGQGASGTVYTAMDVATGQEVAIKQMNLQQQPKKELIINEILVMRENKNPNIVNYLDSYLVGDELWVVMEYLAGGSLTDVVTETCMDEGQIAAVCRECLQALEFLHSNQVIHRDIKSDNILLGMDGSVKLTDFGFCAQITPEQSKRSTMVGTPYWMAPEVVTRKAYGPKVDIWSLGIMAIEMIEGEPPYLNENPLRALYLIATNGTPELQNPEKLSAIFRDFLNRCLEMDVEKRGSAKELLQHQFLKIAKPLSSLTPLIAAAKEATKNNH

IC50 [3]: 170 nM
SMILES: O=C(Nc1cc(C(F)(F)F)cc(C(F)(F)F)c1)NC1CCN(c2ncnc3[nH]ncc23)CC1
Activity [1]: Active
fold change (FC) [2]: >2
